Results on eight compounds are retold here after patent publication US10864248B2, “Dab2 inhibitors for the prevention and treatment of cystic fibrosis” (Trustees of Dartmouth College, priority 2014, dated 2020).

The target of one data set is p96-isoform of Dab2 (Homo sapiens (Human), UniProt P98082). The experiment in a line: Peptide pull-down from CFBE cell lysates and western blot. The format is binding. The note with it: CFBE cell lysates, western blot. On the procedure:
(§1) Peptide Pull-down and Western Blotting. Streptavidin-paramagnetic particles (Promega) were washed twice with wash buffer (50 mM Tris pH 8.0, 150 mM NaCl, 2 mM EGTA, 2 mM EDTA, 5% glycerol, 1 mM DTT) and incubated with 20 μM BT-STA02 (N-terminally biotinylated STA02) for 1 hour on a rotator at 4° C. Beads were then washed twice with wash buffer and once with lysis buffer (50 mM Tris pH 8.0, 150 mM NaCl, 2 mM EGTA, 2 mM EDTA, 5% glycerol, 1 mM DTT, 1% IGEPAL, complete protease inhibitor tablet (Roche)) before incubation with cell lysate. CFBE cells were washed twice with cold PBS, incubated with lysis buffer for 20 minutes shaking at 4° C., scraped, passed through a 27G1/2 syringe, and spun at 13000 rpm for 15 minutes at 4° C. The supernatant was incubated with BT-STA02-coated beads for 2 hours on a rotator at 4° C. Beads were then washed twice with wash buffer and bound protein was eluted with Laemmli sample buffer (Bio-Rad) at 45° C. for 10 minutes. Samples were run on a 7.5% SDS-PAGE gel and probed with anti-Dab2 (BD Biosciences) or anti-p96 Dab2 (Epitomics).
(§2) Since Dab2 is a multi-modular adaptor protein, it was determined whether STA02 binding to the DH domain occurred with the full-length (FL) protein and in the context of other cellular interacting partners. To this end, the binding of STA02 to FL-Dab2 from bronchial epithelial (CFBE) cell lysates was tested in a pull-down assay. […]

The target of the next data set is p67-isoform of Dab2 (Homo sapiens (Human), UniProt P98082). The data set is described as above. Type of data set: binding. The note with it: CFBE cell lysates, western blot. On the procedure:
as §1, §2

In a further data set the target is ΔF508-CFTR (Homo sapiens (Human), UniProt P13569, DEL508-508). As to the kind of experiment: Short-circuit current (Isc), chloride currents in combination therapy. To be noted: for chloride currents: 20 μM, in parallel with VX809 0.1 μM (48 hours) and Kalydeco (acutely), CFBE cells.
For another data set, the system named is CFBE cells. As to the kind of experiment: Toxicity assay (LDH). To be noted: for toxicity, of maximum toxicity (1% TRITON): 3 or 12 hours. The format is cell-based, human. The method, then: Toxicity and Cell Viability Assays. CFBE cells were seeded at 5×10^3 in 96-well plates. Cells were treated in fetal bovine serum (FBS)-free minimum essential medium (MEM, Gibco). Assays were performed and measured according to the CYTOTOX 96 Non-Radioactive cytotoxicity Assay (G1780) kit (Promega) and the […] 96 Aqueous One solution Cell proliferation Assay kit (Promega) instructions. Percent toxicity for the LDH assay was calculated as: […]
A background signal of 0.2% DMSO in media from a well without cells was subtracted from all readings before the above-referenced calculations.

The target in data set [1] is T1, Dab2-DH domain (Homo sapiens (Human), UniProt P98082). The experiment in a line: Fluorescence polarization competition assay to identify small molecule inhibitors. To be noted: FP competition. Type of data set: binding. Also on record: key to Ki: n.a., not active; +, fluorescence change with FP. On the procedure: Fluorescence Polarization Competition Assay to Identify Small Molecule Inhibitors. […] Unlabeled competitor peptide (STA02) or compound hits were serially diluted and mixed with the protein-reporter mix. Percent DMSO in all samples was 1%. Plates were mixed by vibration, centrifuged at 1200 g for 2 minutes and allowed to equilibrate at room temperature for 30-45 minutes before measurement. Fluorescence polarization was measured at an excitation wavelength of 470±5 nm and an emission wavelength of 525±20 nm. Data analysis and calculation of binding affinities were as described above.
T1 sequence (P98082 33-191): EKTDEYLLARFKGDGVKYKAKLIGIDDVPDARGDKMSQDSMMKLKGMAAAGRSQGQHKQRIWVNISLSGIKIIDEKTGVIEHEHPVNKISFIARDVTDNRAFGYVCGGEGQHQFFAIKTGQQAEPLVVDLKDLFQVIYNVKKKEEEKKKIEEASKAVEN
To test the validity of these hits on a smaller scale and to quantify the binding potencies (Ki values), an FP competition assay was carried out.

Data set [2] relates to subjects with the G551D mutation. The note with it: 48-week clinical trial; cited from earlier work.
The next data set has as its system CF patients. The note with it: in combination with KALYDECO; cited from earlier work.
Data set [3] deals with T1, Dab2-DH domain. As to the kind of experiment: Fluorescence polarization competition binding of unlabeled peptides (reporter F*-STA02). To be noted: STA02 compared to STA01. The method, then:
Fluorescence Polarization. Fluorescence polarization (FP) data were measured on a microplate reader (Tecan Infinite M1000, Mannedorf, Switzerland) at 27° C. […] Plates were mixed by vibration, centrifuged for 2 minutes at 1200 g to remove air bubbles and allowed to equilibrate for 30 minutes at room temperature before measurement. […] Unlabeled competitor peptides were serially diluted and mixed with the protein-reporter mix. […] [formula] where [P]tot=total protein concentration and Kd=equilibrium dissociation constant of [PL]. Competition isotherms were fit using a non-linear least-squares algorithm implemented in EXCEL using the SOLVER function. rexp was fit to: [formula] where the free protein concentration [P] in the presence of both the reporter and competitive inhibitor was calculated as a function of the total protein and ligand concentrations and the equilibrium dissociation constant Kd (known) and Ki (fit), respectively, by exact analytical solution of the resulting cubic equation (Wang, et al. (1995) Biotechnol. Prog. 11:558-64).

Data set [4] deals with T1, Dab2-DH domain. The experiment in a line: Isothermal titration calorimetry. Type of data set: binding. On the procedure:
Isothermal Titration calorimetry. Dab2-DH protein was dialyzed versus 150 mM NaCl, 25 mM Tris pH 8.0, and 0.02% NaN3 or 150 mM NaCl, 25 mM NaH2PO4/Na2HPO4 pH 7.4, and 0.02% NaN3. Peptides were solubilized in recovered and degassed dialysis buffer. […] Thus, to maintain a constant DMSO concentration between the cell chamber (protein solution) and the syringe (peptide solution), 1-2% DMSO was added to the ITC-protein solution. Experiments were performed at 15, 25, or 35±0.2° C. on a MICROCAL VP-ITC calorimeter. A 2 μL peptide injection over 4.1 seconds preceded 30-10 μL injections over 300 seconds each. The system was allowed to equilibrate (reach baseline) between injections for 300 seconds while stirring at a speed of 300 rpm. ITC thermograms were fit to a single-site binding model using Origin software package v11. The ITC data were presented by showing the baseline-adjusted titration as heat flow versus time (top) and the peak-integrated concentration-normalized molar heat flow per injection versus the peptide: protein molar ratio (bottom). To account for the contribution of protein, peptide, and buffer protonation enthalpies to the binding enthalpies and consequently the binding constants, titrations in buffers with known and distinct heats of ionization (Tris and Phosphate buffers) were conducted.

Where [5] appears, read: reporter F*-STA02, read-out: Ki.

Like-named read-outs stand apart in the source and are kept apart here. Peptide text beside a SMILES is read from it. * marks the point of attachment. Biotin = O=C1N[C@H]2[C@H](CS[C@H]2CCCCC(=O)*)N1; Ahx = NCCCCCC(=O)O

Sequence of p67-isoform of Dab2 (P98082 other isoform, or with tags, fused parts or gaps): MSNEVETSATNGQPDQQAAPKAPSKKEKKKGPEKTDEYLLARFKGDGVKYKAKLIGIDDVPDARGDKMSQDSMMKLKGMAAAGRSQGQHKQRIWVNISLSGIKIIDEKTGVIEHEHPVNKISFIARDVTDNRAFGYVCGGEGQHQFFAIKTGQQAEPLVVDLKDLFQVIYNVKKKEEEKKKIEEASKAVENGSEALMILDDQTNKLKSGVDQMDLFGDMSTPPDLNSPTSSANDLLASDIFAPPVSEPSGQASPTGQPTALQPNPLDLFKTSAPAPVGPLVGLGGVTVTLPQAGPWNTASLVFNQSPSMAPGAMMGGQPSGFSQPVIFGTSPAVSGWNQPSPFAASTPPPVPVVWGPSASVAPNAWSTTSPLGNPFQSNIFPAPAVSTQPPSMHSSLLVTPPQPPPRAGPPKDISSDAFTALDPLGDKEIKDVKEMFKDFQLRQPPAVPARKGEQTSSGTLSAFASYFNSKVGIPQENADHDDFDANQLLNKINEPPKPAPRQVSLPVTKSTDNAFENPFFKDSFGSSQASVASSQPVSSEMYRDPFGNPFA
Sequence of p96-isoform of Dab2 (P98082 whole entry, canonical isoform): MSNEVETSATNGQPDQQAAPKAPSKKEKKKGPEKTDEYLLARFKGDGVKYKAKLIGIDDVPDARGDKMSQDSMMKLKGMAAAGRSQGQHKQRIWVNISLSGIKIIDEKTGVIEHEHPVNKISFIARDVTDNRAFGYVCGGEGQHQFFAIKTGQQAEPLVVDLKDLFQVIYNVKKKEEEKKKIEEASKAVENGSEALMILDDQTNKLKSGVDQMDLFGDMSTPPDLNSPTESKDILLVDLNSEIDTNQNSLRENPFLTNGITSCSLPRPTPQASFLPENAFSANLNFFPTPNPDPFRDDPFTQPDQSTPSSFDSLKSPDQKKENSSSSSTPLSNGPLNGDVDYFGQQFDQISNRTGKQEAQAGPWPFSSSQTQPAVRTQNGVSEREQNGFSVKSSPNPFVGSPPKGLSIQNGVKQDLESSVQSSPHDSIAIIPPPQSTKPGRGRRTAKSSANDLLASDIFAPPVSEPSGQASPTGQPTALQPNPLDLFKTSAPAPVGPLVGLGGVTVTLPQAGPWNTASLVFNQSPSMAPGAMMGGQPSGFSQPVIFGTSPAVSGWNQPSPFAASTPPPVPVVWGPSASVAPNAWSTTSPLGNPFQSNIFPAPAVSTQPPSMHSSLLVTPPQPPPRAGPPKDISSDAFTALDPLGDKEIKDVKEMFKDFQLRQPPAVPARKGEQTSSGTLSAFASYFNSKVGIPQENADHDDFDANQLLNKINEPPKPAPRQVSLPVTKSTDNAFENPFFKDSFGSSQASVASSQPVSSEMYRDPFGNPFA

With `CSCC[C@H](NC(=O)[C@H](CC(N)=O)NC(=O)[C@H](CCC(=O)O)NC(=O)[C@H](CCC(N)=O)NC(=O)[C@@H]1CCCN1C(=O)[C@H](CCC(N)=O)NC(=O)[C@H](Cc1ccc(O)cc1)NC(=O)[C@H](CC(N)=O)NC(=O)[C@@H]1CCCN1C(=O)[C@H](CC(N)=O)NC(=O)[C@H](CC(=O)O)NC(=O)[C@H](Cc1ccccc1)NC(=O)CNC(=O)CNC(=O)[C@H](CO)NC(=O)CNC(=O)[C@H](CO)NC(=O)CCCCCNC(=O)CCCC[C@@H]1SC[C@@H]2NC(=O)N[C@@H]21)C(=O)N[C@@H](CCC(N)=O)C(=O)N[C@@H](C)C(=O)O` [BT-STA02] ({Biotin-Ahx}-SGSGGFDNPNYQPQENMQA-OH; C-terminus assumed), the “binding of p96-isoform of Dab2” value on p96-isoform of Dab2 is given as “bound”. Besides, on p67-isoform of Dab2, the “binding of p67-isoform of Dab2” value was “did not”.

As a reminder, the Ki is a dissociation constant, usually derived from enzyme kinetics or from competition with a known ligand. With `CN1CCc2cccc3c2[C@@H]1Cc1ccc(O)c(O)c1-3.Cl` [Compound 1, S(+)-10,11-Dihydroxyaporphine Hydrochloride], at ΔF508-CFTR, the chloride currents result is “enhanced chloride currents”. Moreover, in the data set with CFBE cells (40 μM), the “toxicity, of maximum toxicity (1% TRITON)” value was found to be 10%. In addition, the toxicity with CFBE cells (40 μM, 24 hours) is recorded as 20-40%. In addition, on Dab2-DH domain [1] (setting [5]), the inhibition constant (Ki) amounted to 1920 nM.

Regarding `C[C@]12CC[C@@H]3c4cc(O)c(O)cc4CC[C@H]3[C@@H]1CC[C@@H]2O` [Compound 2, 2-Hydroxyestradiol], in the data set on CFBE cells (40 μM), the “toxicity, of maximum toxicity (1% TRITON)” value stood at 10%.

In the case of `CC1(C)Cc2ccccc2-c2n[nH]c(=S)n21` [Compound 3, 5,5-dimethyl-5,6-dihydro [1,2,4]triazolo[3,4-a] isoquinoline-3(2H)-thione], the “benefit compared to VX809 (ANOVA, P<0.05)” value on ΔF508-CFTR (20 μM in combination with VX809 0.1 μM) is given as “statistically significant benefit”. For the same compound, the chloride currents entry at ΔF508-CFTR is “enhanced chloride currents”. Moreover, in the data set on CFBE cells (3 hours), the toxicity result is “no toxicity”. Besides, the Ki at Dab2-DH domain [1] (setting [5]) and at Dab2-DH domain [1] (read-out: binding affinity (Ki)) was 779 nM each time.

As for `OCCN(CCO)c1nc(N2CCCCC2)c2nc(N(CCO)CCO)nc(N3CCCCC3)c2n1` [Compound 5, Dipyridamole], at Dab2-DH domain [1] (symbols), the inhibition constant Ki entry is recorded as “+”. The total fluorescence result on Dab2-DH domain [1] (Ki not obtained) was “increased total fluorescence”.

Regarding `CC(C)(C)c1cc(C(C)(C)C)c(NC(=O)c2c[nH]c3ccccc3c2=O)cc1O` [KALYDECO, N-(2,4-Di-tert-butyl-5-hydroxyphenyl)-4-oxo-1,4-dihydroquinoline-3-carboxamide], in data set [2], the “drop in pulmonary exacerbations” value is given as 55%, the “improvement in lung function (predicted FEV1)” value was 10.6% and the “reduction in sweat chloride” value is given as 48 mEq/L.

In the case of `Cc1ccc(NC(=O)C2(c3ccc4c(c3)OC(F)(F)O4)CC2)nc1-c1cccc(C(=O)O)c1` [Lumacaftor, 3-{6-{[1-(2,2-difluoro-1,3-benzodioxo1-5-yl)cyclopropanecarbonyl]amino}-3-methylpyridin-2-yl}benzoic acid], in the data set on CF patients, the “patients with >5% increase in FEV1” value is 55% and the “patients with >10% increase in FEV1” value is listed as 25%.

As for `CSCC[C@H](NC(=O)[C@H](CC(N)=O)NC(=O)[C@H](CCC(=O)O)NC(=O)[C@H](CCC(N)=O)NC(=O)[C@@H]1CCCN1C(=O)[C@H](CCC(N)=O)NC(=O)[C@H](Cc1ccc(O)cc1)NC(=O)[C@H](CC(N)=O)NC(=O)[C@@H]1CCCN1C(=O)[C@H](CC(N)=O)NC(=O)[C@H](CC(=O)O)NC(=O)[C@H](Cc1ccccc1)NC(=O)CNC(=O)[C@H](CC(N)=O)NC(=O)[C@@H](N)CCC(N)=O)C(=O)N[C@@H](CCC(N)=O)C(=O)N[C@@H](C)C(=O)O` [STA02], the “increase in binding affinity” value on Dab2-DH domain [3] turned out to be 2 fold. The “net release of protons during binding (NH+)” value on Dab2-DH domain [4] (Tris and phosphate buffers) stood at 0.04 per mole. Also, on Dab2-DH domain [4] (Tris buffer, 25° C.), the ΔH was -20.7 ± 1.45 kcal/mol and the ΔS is listed as −37.8 cal/mol/K. In addition, at Dab2-DH domain [4] (estimated, 37° C.), the TΔS was -16.1 kcal/mol, the ΔG is -8.9 kcal/mol and the ΔH was -25.0 kcal/mol. Moreover, the “change of heat capacity, ΔCp” value on Dab2-DH domain [4] (from ΔH at 15, 25, and 35° C.) is on record as −320 cal/mol/K.
